PMC7317212 (Chemmedchem, 2020)

Assays:
[1] = target: T1, mGAT1 (Mus musculus, UniProt P31648); test: MS Binding Assay with NO711 as native MS marker; settings: MS Binding Assay, NO711 marker; pKi±SEM; read-out: pK i mGAT1 (converted)
T1 construct: expressed in transfected cells; host or cells: HEK293
Procedure, shortened: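 Competitive MS binding using membranes from HEK293 cells stably expressing mGAT1, with 10 nM unlabeled NO711 as marker and compounds at 7 concentrations. Nonspecific binding defined with 100 mM GABA. Bound NO711 eluted after filtration and quantified by LC-ESI-MS/MS against [2H10]NO711; Ki derived.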

[2] = target: T1, mGAT1; test: [^3H]GABA uptake assay, HEK293 cells expressing mGAT1; assay type: cell-based; settings: [^3H]GABA uptake; pIC50±SEM
Procedure, shortened: (§1)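 HEK293 cells expressing mouse GATs preincubated 25 min at 37 °C with compound in Krebs buffer pH 7.2, then [3H]GABA added: 8 nM plus 32 nM unlabeled for 4 min (mGAT1/3/4), 20 nM plus 20 nM for 10 min (mGAT2). Filtration, scintillation counting; nonspecific uptake with 10 mM (mGAT1/3/4) or 100 mM GABA (mGAT2); pIC50.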

[3] = target: T2, mGAT2 (Mus musculus, UniProt P31651); test: [^3H]GABA uptake assay, HEK293 cells expressing mGAT2; assay type: cell-based; settings: HEK293; in presence of 100 μM compound
T2 construct: expressed in transfected cells; host or cells: HEK293
T2 sequence (P31651 1-614): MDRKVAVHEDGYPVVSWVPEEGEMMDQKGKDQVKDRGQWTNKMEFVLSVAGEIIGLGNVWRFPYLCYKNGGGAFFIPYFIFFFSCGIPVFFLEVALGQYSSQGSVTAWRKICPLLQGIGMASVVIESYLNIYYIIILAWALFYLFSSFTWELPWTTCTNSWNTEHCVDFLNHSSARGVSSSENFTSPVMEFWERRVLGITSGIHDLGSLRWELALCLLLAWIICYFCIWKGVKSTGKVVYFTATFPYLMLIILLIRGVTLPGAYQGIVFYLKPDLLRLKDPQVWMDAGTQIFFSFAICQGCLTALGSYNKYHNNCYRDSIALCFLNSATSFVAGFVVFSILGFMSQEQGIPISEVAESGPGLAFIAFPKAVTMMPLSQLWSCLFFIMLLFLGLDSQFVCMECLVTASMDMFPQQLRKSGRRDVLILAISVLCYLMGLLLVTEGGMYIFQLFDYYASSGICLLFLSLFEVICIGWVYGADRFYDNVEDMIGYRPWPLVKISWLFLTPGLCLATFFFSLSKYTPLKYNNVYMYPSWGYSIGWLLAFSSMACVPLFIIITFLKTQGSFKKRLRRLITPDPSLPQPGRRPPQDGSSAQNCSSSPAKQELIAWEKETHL
Procedure, shortened: as §1

## COc1ccc(C(OCCN2CCCC(C(=O)O)C2)(c2ccc(C=O)cc2)c2ccc(OC)cc2)cc1 (racemic) [5 a, rac‐ 1‐{2‐[(4‐Formylphenyl)bis(4‐methoxyphenyl)methoxy]ethyl}piper‐idine‐3‐carboxylic acid]
[1]
  Ki: 38.9 µM
[2]
  IC50: 67.6 µM
[3]
  remaining activity at 100 µM: 66.3%
